Like-named read-outs stand apart in the source and are kept apart here.
Columns and labels:
AChE = conditions: cited from earlier work; for IC50: read-out: AChE IC50
BChE = conditions: read-out: BChE IC50; cited from earlier work
[1] = biological target: T1, human blood acetylcholinesterase (AChE) (Homo sapiens, UniProt P22303); experiment: AChE inhibition, modified Ellman's method, red blood cell lysate; assay type: biochemical
T1 construct: Red blood cell lysate was used as a source of AChE and human plasma as a source of BChE; from tissue; host or cells: human erythrocytes (lysate) from freshly drawn blood of healthy volunteers
T1 sequence (P22303 32-617 isoform P22303-2 limits assumed): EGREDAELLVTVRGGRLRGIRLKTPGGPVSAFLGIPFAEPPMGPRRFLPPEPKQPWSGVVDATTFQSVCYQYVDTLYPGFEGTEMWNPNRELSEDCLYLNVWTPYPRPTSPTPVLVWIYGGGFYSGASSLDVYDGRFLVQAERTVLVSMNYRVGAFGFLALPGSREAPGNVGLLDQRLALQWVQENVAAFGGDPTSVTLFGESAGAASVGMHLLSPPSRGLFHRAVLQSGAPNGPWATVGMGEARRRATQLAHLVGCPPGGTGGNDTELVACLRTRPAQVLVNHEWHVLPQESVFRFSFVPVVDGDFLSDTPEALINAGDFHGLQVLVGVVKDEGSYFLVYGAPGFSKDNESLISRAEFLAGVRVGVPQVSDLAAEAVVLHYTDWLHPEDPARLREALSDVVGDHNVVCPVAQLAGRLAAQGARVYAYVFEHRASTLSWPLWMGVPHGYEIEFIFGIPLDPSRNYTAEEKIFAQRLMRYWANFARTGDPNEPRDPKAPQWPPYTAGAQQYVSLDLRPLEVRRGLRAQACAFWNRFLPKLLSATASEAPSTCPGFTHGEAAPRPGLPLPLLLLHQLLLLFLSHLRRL

[2] = biological target: T2, recombinant prolyl oligopeptidase (POP) (Homo sapiens, UniProt P48147); experiment: Prolyl oligopeptidase assay, substrate Z-Gly-Pro-p-nitroanilide; assay type: biochemical
T2 construct: purchased Sigma-Aldrich (Prague, Czech Republic)
T2 sequence (P48147 1-710): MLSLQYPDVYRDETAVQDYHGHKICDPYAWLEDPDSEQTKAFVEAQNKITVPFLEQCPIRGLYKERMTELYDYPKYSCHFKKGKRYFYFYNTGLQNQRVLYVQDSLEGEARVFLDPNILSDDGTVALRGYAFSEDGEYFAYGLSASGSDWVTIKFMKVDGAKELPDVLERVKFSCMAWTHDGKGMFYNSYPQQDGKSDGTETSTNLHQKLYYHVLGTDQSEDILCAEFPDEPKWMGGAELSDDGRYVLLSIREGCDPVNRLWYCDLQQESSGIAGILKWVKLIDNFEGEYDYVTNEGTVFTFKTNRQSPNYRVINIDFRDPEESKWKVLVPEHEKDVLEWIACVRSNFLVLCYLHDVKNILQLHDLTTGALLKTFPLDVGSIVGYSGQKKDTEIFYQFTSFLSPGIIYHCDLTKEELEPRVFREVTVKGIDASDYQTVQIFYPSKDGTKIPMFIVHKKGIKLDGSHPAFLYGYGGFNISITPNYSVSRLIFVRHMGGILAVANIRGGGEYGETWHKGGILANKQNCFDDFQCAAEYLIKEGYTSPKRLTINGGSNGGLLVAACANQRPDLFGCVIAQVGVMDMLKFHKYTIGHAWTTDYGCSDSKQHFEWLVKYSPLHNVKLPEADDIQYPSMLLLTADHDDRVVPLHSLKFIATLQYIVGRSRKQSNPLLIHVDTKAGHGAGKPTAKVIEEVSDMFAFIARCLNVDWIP

[3] = biological target: human plasma butyrylcholinesterase (BChE) (Homo sapiens, UniProt P06276); experiment: biochemical
Sequence of human plasma butyrylcholinesterase (BChE) (P06276 29-602): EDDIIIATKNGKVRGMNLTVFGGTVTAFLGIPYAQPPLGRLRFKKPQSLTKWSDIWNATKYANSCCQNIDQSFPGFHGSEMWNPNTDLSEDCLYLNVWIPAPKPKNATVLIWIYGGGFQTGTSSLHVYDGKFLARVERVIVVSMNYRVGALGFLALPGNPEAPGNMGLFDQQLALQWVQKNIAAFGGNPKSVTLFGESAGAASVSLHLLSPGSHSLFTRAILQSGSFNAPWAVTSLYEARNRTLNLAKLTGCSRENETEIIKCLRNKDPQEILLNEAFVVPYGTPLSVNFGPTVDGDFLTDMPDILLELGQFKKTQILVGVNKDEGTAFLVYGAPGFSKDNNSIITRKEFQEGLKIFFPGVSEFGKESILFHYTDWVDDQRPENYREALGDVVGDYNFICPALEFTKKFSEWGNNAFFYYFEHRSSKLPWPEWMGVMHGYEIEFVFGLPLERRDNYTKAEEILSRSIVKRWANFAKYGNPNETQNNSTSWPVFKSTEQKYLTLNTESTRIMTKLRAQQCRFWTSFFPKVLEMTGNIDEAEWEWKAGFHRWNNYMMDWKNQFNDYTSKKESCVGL

[4] = biological target: T2, recombinant prolyl oligopeptidase (POP); conditions: tested previously; cited from earlier work
[5] = isolated from Fumaria vaillantii, review of Sener and Orhan

Molecule | IC50 (AChE) | IC50 [1] | IC50 [3] | other results
COc1cc2c(cc1O)C(Cc1ccc(O)cc1)N(C)CC2 (single isomer, unassigned; (+)) [(+)-N-methylcoclaurine] | > 220 µM | – | – | IC50 (BChE): 15 ± 1.4 µM
COc1ccc(CC2c3cc4c(cc3CCN2C)OCO4)c(C=O)c1OC (single isomer, unassigned; (+)) [canadaline, (+)-canadaline] | 20.1 µM | – | – | –
COc1ccc(C[C@H]2c3cc(O)c(OC)cc3CCN2C)cc1O [(+)-reticuline] | > 220 µM | – | – | IC50 (BChE): 33.6 ± 3 µM
COc1cc2c(cc1O)[C@@H]1Cc3cc4c(cc3[C@H](C2)N1C)OCO4 [(–)-caryachine] | 19.6 ± 0.4 µM | – | – | –
COc1cc2c(cc1OC)[C@@H]1Cc3cc(OC)c(OC)cc3[C@H](C2)N1C [Compound 3, (–)-argemonine] | – | > 1000 µM | 885 ± 119 µM | IC50 [2]: 337 ± 83.1 µM
COc1ccc2c(c1OC)CN(C)CCc1cc3c(cc1C(=O)C2)OCO3 [Compound 4, allocryptopine] | – | 250 ± 25 µM | 530 ± 28.2 µM | IC50 (AChE; [5]): 1.3 µM; IC50 [2]: > 1000 µM
COc1cc2c(cc1OC)[C@@H]1Cc3ccc(OC)c(O)c3[C@H](C2)N1C [Compound 5, (–)-platycerine] | – | 224 ± 19.6 µM | > 1000 µM | IC50 [4]: 687 ± 74 µM
COc1cc2c(cc1O)[C@@H]1Cc3ccc(OC)c(O)c3[C@H](C2)N1C [Compound 6, (–)-munitagine] | – | 62.3 ± 5.8 µM | 837 ± 23 µM | IC50 [2]: 277 ± 31.3 µM
COc1cc2c(cc1O)[C@@H]1Cc3cc(OC)c(OC)cc3[C@H](C2)N1C [Compound 7, (–)-norargemonine] | – | 205 ± 11.7 µM | > 1000 µM | –
(–)-californidine | 36.7 ± 0.9 µM | – | – | –
protopine [Compound 2] | – | – | – | Type of AChE inhibition (AChE): dose-dependent, specific, reversible and competitive AChE inhibitor; IC50 (AChE; [5]): 1.8 µM

From PMC6152004 (Molecules : A Journal of Synthetic Chemistry and Natural …, 2017)
